Test results: a melting point compilation (Tetko et al.)

Row | Structure (SMILES) | melting point
1 | O=C(O)C1CCSC1 (stereo unspecified) | 60 to 62 °C
2 | Nc1cc(-c2ccco2)ccc1F | 40 to 42 °C
3 | COC(=O)c1cccc(OCC(N)=NO)c1 | 134 to 136 °C
4 | Clc1nccc(-n2cccn2)n1 | 118 to 120 °C
5 | Nc1ncnc2c(F)cc(Br)cc12 | 343 to 345 °C
6 | CC(C)(C)OC(=O)Nc1ccc(O)cc1 | 131 to 133 °C
7 | Nc1ccccc1CN1C(=O)CCC1=O | 108 to 110 °C
8 | O=C1COc2ccc(F)cc2N1 | 204 to 206 °C
9 | CC(=O)Nc1ccc(CCN)cc1 | 121 to 123 °C
10 | Fc1cc2nc(CCl)[nH]c2cc1F | 150 to 152 °C
11 | CC(C)(C)c1ccc(SCC(=O)O)cc1 | 65 to 67 °C
12 | COc1cc(C)ccc1C(=O)CBr | 77 to 79 °C
13 | C=CCNC(=O)NC(C)(C)C(=O)O | 125 to 127 °C
14 | NC(=O)C1CCN(CCc2ccc(N)cc2)CC1 | 223 to 225 °C
15 | Cc1c(C(=O)O)nnn1-c1cccc([N+](=O)[O-])c1 | 169 to 171 °C
16 | O=C(O)c1noc2c1CCCC2 | 124 to 126 °C
17 | Cc1nc(S)c(C#N)cc1C(=O)Nc1ccccc1 | 201 to 203 °C
18 | Oc1ccc(-c2nnc[nH]2)cc1 | 244 to 246 °C
19 | Cc1cccc(S(=O)(=O)Cl)c1Br | 56 to 58 °C
20 | COCCN(CC(=O)O)C(=O)OC(C)(C)C | 76 to 78 °C
21 | CN(C)c1ccc(C#N)c(N)c1 | 109 to 111 °C
22 | CC(C)NS(=O)(=O)c1ccc(/C=C/C(=O)O)cc1 | 223 to 225 °C
23 | NNC(=O)c1ccc(NS(=O)(=O)c2cccc([N+](=O)[O-])c2)cc1 | 80 to 82 °C
24 | O=C(O)CSCc1cc(-c2cccs2)on1 | 113 to 115 °C
25 | Cc1ccc(SCCC(=O)O)cc1 | 71 to 73 °C
26 | O=C(O)c1cc(S(=O)(=O)NCCCN2CCCC2=O)ccc1Cl | 98 to 100 °C
27 | Cc1cc(O)nc(-c2ccc(-c3ccccc3)cc2)n1 | 275 to 277 °C
28 | O=C(CBr)c1ccc(Cl)s1 | 113 to 115 °C

Row | Structure (SMILES) | melting point
29 | COc1cccc(C(=O)O)c1OC(F)F | 152 to 154 °C
30 | CC(=O)c1sc2nc(CCl)[nH]c(=O)c2c1C | 247 to 249 °C
31 | O=C(O)CNc1cccc(Cl)c1 | 174 to 176 °C
32 | Cc1nn(C(F)F)c(C)c1CO | 86 to 88 °C
33 | COc1cccc(C2CC(=O)CC(=O)C2)c1 | 131 to 133 °C
34 | CC(=NO)c1ccc(OCC(F)(F)F)cc1 | 127 to 129 °C
35 | COC(=O)c1cc2ccccc2cc1N | 99 to 101 °C
36 | C=C(CC(=O)OC)C(=O)O | 67 to 69 °C
37 | NS(=O)(=O)CC1CCCC1 | 42 to 44 °C
38 | CC1CCN(CCCC(N)=NO)CC1 | 98 to 100 °C
39 | CCc1cccc2c(CCN)c[nH]c12 | 91 to 93 °C
40 | CCOC(=O)c1cnn(CCC#N)c1 | 87 to 89 °C
41 | O=C(NCC1CCCC1)n1ccnc1 | 61 to 63 °C
42 | CCCCCCNC(=O)CCl | 29 to 31 °C
43 | COc1cc(OC)c(S(=O)(=O)Cl)cc1Br | 193 to 195 °C
44 | N#Cc1sc2ccccc2c1N | 155 to 157 °C
45 | Cc1cc(O)nc(C2CC2)n1 | 190 to 192 °C
46 | CCOC(=O)c1cc(Br)cc(F)c1N | 48 to 50 °C
47 | CCOc1cc(-c2ccccc2)sc1C(=O)O | 174 to 176 °C
48 | Cc1cccc(S(N)(=O)=O)c1Cl | 169 to 171 °C
49 | Cc1c(N)cccc1COC1CCCCC1 | 54 to 56 °C
50 | O=[N+]([O-])c1cc(C(F)(F)F)ccc1I | 34 to 36 °C
51 | O=C(O)CCOc1ccc(Br)cc1 | 145 to 147 °C
52 | O=S(=O)(Nc1cc(F)cc(F)c1)c1ccc(Cl)nc1 | 199 to 201 °C
53 | CNC(=O)CCC(F)(F)F | 111 to 113 °C
54 | CNc1ncnc2ccccc12 | 179 to 181 °C
55 | Cc1ccc(Oc2ccc(N)cc2)nc1 | 90 to 92 °C

Other lines, results leading:

Row | melting point | Structure (SMILES)
56 | 249 to 251 °C | O=C(O)Cn1ccc(=O)c([N+](=O)[O-])c1
57 | 90 to 92 °C | NNc1ncccn1
58 | 140 to 142 °C | O=C(O)CCCn1cncn1
59 | 139 to 141 °C | Cc1cc(C)c(CN)c(=O)[nH]1
60 | 143 to 147 °C | Nc1ccc(-n2ccnc2)cc1
61 | 35 to 39 °C | CC(C)CCc1ccc(S(=O)(=O)Cl)cc1
62 | 129 to 131 °C | Nc1ccc(Oc2ccncc2)c(Cl)c1
63 | 119 to 121 °C | CCCn1ncc(C(=O)O)c1C1CC1
64 | 86 to 88 °C | O=C(CCl)NC1CCOc2ccccc21 (stereo unspecified)
65 | 139 to 141 °C | CC(C)(C)Oc1ccc(C(=O)O)cc1
66 | 235 to 237 °C | CC1Nc2cc(=O)[nH]n2C(C)C1CC(=O)O (stereo unspecified)
67 | 159 to 161 °C | Nc1ccc(F)c(N(S(=O)(=O)c2ccccc2)S(=O)(=O)c2ccccc2)c1
68 | 58 to 60 °C | Cc1cnc(C#N)c(C)c1
69 | 244 to 246 °C | NC1(C(=O)O)CCOC1 (stereo unspecified)
70 | 104 to 106 °C | O=C(O)CCS(=O)(=O)C(F)(F)F
71 | 129 to 131 °C | Cc1nnc(CO)o1
72 | 113 to 115 °C | COC(=O)C(=O)CC(=O)c1cccnc1
73 | 166 to 168 °C | NC(=O)c1cnc(Cl)cn1
74 | 37 to 39 °C | Clc1ccc2c(c1)CCCN2
75 | 144 to 146 °C | COc1ccc(N)cc1S(=O)(=O)N(C)C
76 | 84 to 86 °C | N#CCC1=NCCN1
77 | 274 to 276 °C | O=C(O)c1cnc2ccc(Br)cc2c1O
78 | 98 to 102 °C | CSc1ccc(C(=O)CCl)cc1NC(C)=O
79 | 196 to 198 °C | COC1CCN(C(=O)Nc2cccc(C(=O)O)c2)CC1
80 | 108 to 110 °C | COc1ccc2cc(C(=O)CBr)ccc2c1
81 | 78 to 80 °C | CN(CC(N)=O)C1CCCC1

Row | melting point | Structure (SMILES)
82 | 215 to 217 °C | Cc1ccc(NS(=O)(=O)c2ccc(NN)c([N+](=O)[O-])c2)c(C)c1
83 | 174 to 176 °C | CC1CCN(c2ccc(NC(=O)CCC(=O)O)cc2)CC1
84 | 98 to 100 °C | O=C(Nc1cccc([N+](=O)[O-])c1)OCC(F)(F)F
85 | 142 to 144 °C | C/C=C/c1cc(C(=O)O)cc(OC)c1OC
86 | 63 to 65 °C | COc1ccc(Br)c(S(=O)(=O)Cl)c1
87 | 145 to 152 °C | O=C(O)C1CCCN(C(=O)c2ccc(Cl)cc2)C1 (stereo unspecified)
88 | 73 to 75 °C | COc1ccc(CCC(=O)O)c(OC)c1OC
89 | 328 to 330 °C | Cn1c(=O)c2[nH]c(S)nc2n(C)c1=O
90 | 161 to 163 °C | CCN(CC)S(=O)(=O)c1ccc(F)c(C(=O)O)c1
91 | 132 to 134 °C | CCOC(=O)/C(C#N)=C/Nc1cc(Cl)ccc1OC
92 | 110 to 113 °C | O=c1[nH]c(S)nc2c1cnn2-c1ccccc1
93 | 166 to 168 °C | NC(=O)Cc1ccc2c(c1)CCC2
94 | 239 to 241 °C | COC(=O)c1ccc(-c2csc(N)n2)cc1
95 | 114 to 116 °C | C/C(Cn1nc(C)cc1C)=N\O
96 | 268 to 270 °C | O=C(Nc1ccc(C(=O)O)c(O)c1)c1cc(Cl)cc(Cl)c1
97 | 143 to 145 °C | N#Cc1cccc(NC(=O)CCl)c1
98 | 272 to 274 °C | O=C(O)c1cc(-c2ccco2)nc2cc(F)ccc12
99 | 133 to 135 °C | Nc1cccc(CS(=O)c2ccccc2)c1 (stereo unspecified)
100 | 219 to 221 °C | O=Cc1cc(O)c(O)c(Br)c1
101 | 290 to 292 °C | O=C1NCNC(=O)N1
102 | 35 to 37 °C | Brc1ccccc1-c1ncno1
103 | 209 to 211 °C | C1=CCC(c2nc3ccccc3[nH]2)CC1 (stereo unspecified)
104 | 166 to 168 °C | NC(=O)Nc1ccc(F)c(Cl)c1
105 | 150 to 152 °C | N#Cc1ccccc1S(=O)(=O)N1CCC(C(=O)O)CC1
106 | 89 to 91 °C | OCC1CSc2ccccc2O1 (stereo unspecified)
